Values of other authors in US20260273014A1, “Herbal composition for metabolic syndromes and method of treatment thereof” (priority 2019, published 2026).

Settings: pure mangiferin (Acosta et al. 2016)

solubility: an issue in most biological models
SMILES: O=c1c2cc(O)c(O)cc2oc2cc(O)c([C@@H]3O[C@H](CO)[C@@H](O)[C@H](O)[C@H]3O)c(O)c12 [mangiferin]
